The source of these data is publication PMC11359531, “Establishment of Dissolution Test Method for Multi-Components in Traditional Chinese Medicine Preparations Based on In Vitro–In Vivo Correlation” (Pharmaceuticals, 2024).

A short description of data set [1]: Pharmacokinetic study of the Q-markers in beagle dogs. The following applies: dog. The procedure: An ACQUITY UPLC system from Waters was used for chromatography separation, equipped with a Waters Cortecs C18 column (1.7 μm, 2.1 mm × 50 mm) operated at a flow rate of 0.30 mL/min. The column temperature and auto-sampler temperature were set as 45 °C and 4 °C, respectively. The mobile phases were 10 mM ammonium acetate solution (pH 5.0 by acetic acid) (A) and acetonitrile (B) and the gradient elution used was as follows: 30–39% B from 0–3.3 min, 39–95% B from 3.3–5.4 min, 95% B from 5.4–7.4 min, 95–30% B from 7.4–13.5 min, and 30% B from 13.5–16.0 min. The injection volume was 3 μL. The AB SCIEX Qtrap™ 6500 LC-MS/MS system with electron spray ionization (ESI) source in multiple reaction monitoring (MRM) mode was used for MS analysis. The detection was performed under the following conditions: source temperature (at set point) at 550.0 °C, positive ion mode, GS1 at 40 psi, GS2 at 40 psi, CUR at 45 psi, CXP at 15 V, DP at 100 V, and EP at 10 V. Quantitative analysis of analytes in MRM mode was used to determine the transition of precursor ions to specific product ions (m/z): tetrahydropalmatine, m/z […] [M + H]+ → m/z 229.0 (collision energy, CE: 17 V), corydaline, m/z […] (CE: 17 V), protopin, m/z […] [M + H]+ → m/z 227.1 (CE: 23 V), allocryptopine, m/z […] [M + H]+ → m/z 373.2 (CE: 17 V), and byakangelicin, m/z 389.2 [M + H]+ → m/z 363.1 (CE: 17 V). The data were processed using MultiQuant™ 2.1 software purchased from SCIEX.
The standard solutions of tetrahydropalmatine, corydaline, protopin, α-allocryptopine, and byakangelicin were prepared by dissolving them in acetonitrile to obtain a mixed standard stock solution, which was further diluted with acetonitrile to prepare a series of different concentration gradient mixed standard solutions. An internal standard solution of 25 ng/mL was prepared from betamethasone solution (500 μg/mL) diluted with acetonitrile. Blank dog blood was collected through intravenous blood sampling, and plasma was obtained by centrifugation. To prepare the standard plasma sample, 25 μL of the mixed standard solution was added to 100 μL of blank plasma, and 400 μL of acetonitrile was added and vortexed for protein precipitation. The supernatant was acquired by centrifugation and blown dry with nitrogen. Then, 100 μL of acetonitrile was added to the dried supernatant, and the resulting solution was mixed to gain the standard plasma sample. Different mixed standard solution including a serial of concentrations of tetrahydropalmatine: 0.625–25 ng/mL, corydaline: 0.625–25 ng/mL, protopin: 0.1–4 ng/mL, α-allocryptopine: 0.1–4 ng/mL, byakangelicin: 18.75–750 ng/mL were applied to prepare standard plasma sample and quality control (QC) samples of plasma as follows: 1.25, 5, and 20 ng/mL for tetrahydropalmatine and corydaline, 0.2, 0.8, and 3.2 ng/mL for protopin and α-allocryptopine, and 37.5, 150, and 600 ng/mL for byakangelicin.
For pharmacokinetic study, six beagle dogs were used and housed in a professional animal breeding room with a relative humidity of 55–60% and a temperature of 25 °C for one week. The experimental operation was carried out in accordance with ethical requirements for animal experiments and approved by the Institutional Animal Care and Use Committee of the School of Pharmacy, Fudan University. The dogs had free access to drinking water and were fasted for 24 h before the experiment. The dogs were randomly divided into two groups, one group receiving an oral dose of 12 tablets with brand A (tetrahydropalmatine 2.5 mg, corydaline 0.963 mg, protopin 1.896 mg, α-allocryptopine 0.917 mg, and byakangelicin 2.783 mg), while the other group were given an intravenous dose of 2 mL of normal saline containing tetrahydropalmatine 19.75 μg, corydaline 4.54 μg, protopin 168.062 μg, α-allocryptopine 297.16 μg, and byakangelicin 78.68 μg. Blood samples of 2 mL were taken at 15, 30, 45, 60, 90, 120, 150, 180, 240, 360, 480, 720, and 1440 min after dosing.

The conditions of data set [2]: dog, in vivo.
Source text: The Phoenix WinNonlin IVIVC tool was utilized to evaluate the relationship between in vivo drug dissolution rate and blood drug concentration, which utilizes the Unit Impulse Response (UIR) function for this purpose. By using intravenous administration as the input for the unit impulse response, the influence of drug absorption can be eliminated. The obtained UIR function will be utilized for the deconvolution of pharmacokinetic data to obtain the curve of cumulative drug absorption over time [50]. (8) Y(t)=A×exp[Alpha×(t×Ka−tlag)] in which Y(t) is unit impulse response, A is the coefficient value, Alpha is the exponential value, Ka is the absorption rate constant, tlag is the lag time.
Data set [3] deals with Caco-2 cells.
The conditions of data set [4]: dog, in vivo. The source holds these as a separate data set.
Source text: In order to further apply the identified in vivo correlated dissolution conditions to different batches of YZTs, another brand of YZTs was selected for external validation of the dissolution conditions and IVIVC model results. The dissolution data of different brands in the identified media were input into the established IVIVC model to obtain the predicted blood concentration–time curve and to compare the PE% between the predicted value and the actual value.

Like-named read-outs stand apart in the source and are kept apart here.

One may read the AUC(0-inf) as total exposure, with the tail of the curve extrapolated. The low end stands for less exposure, the high end for more exposure. As usually defined, the AUC(0-t) is exposure summed from dosing to a finite time, without extrapolation to infinity. Low values mean low exposure, high ones high exposure. By Cmax is commonly meant the peak of the concentration-time curve. Broadly, the Tmax is the time from dosing to the highest level. For orientation: half-life means how long it takes for the measured level to halve. A word on the AUC: it is the area under the concentration-time curve, a measure of exposure. Lower therefore signals less exposure. In general, bioavailability refers to dose-corrected exposure relative to a reference, in per cent. Lower therefore signals poor availability. With `COc1ccc2c(c1OC)CN(C)CCc1cc3c(cc1C(=O)C2)OCO3` [α-allocryptopine], in data set [1] (beagle, in vivo, iv), the AUC(0-inf) is 39.6 ng·h/mL, the AUC(0-t) is 35.9 ng·h/mL, the concentration peaked (Cmax) at 32.8 ng/mL and the Tmax is 0.0833 h. Further, the half-life in data set [1] (beagle, in vivo, iv) worked out at 5.52 h. Also, in data set [1] (beagle, in vivo, po), the AUC is 8.31 ng·h/mL, the AUC(0-inf) is 9.12 ng·h/mL, the AUC(0-t) is 8.31 ng·h/mL and the Cmax was determined as 3.51 ng/mL. Moreover, in data set [1] (beagle, in vivo, po), the Tmax is 1 h, the bioavailability stood at 7.5% and the half-life came out at 8.39 h.

On to `COc1cc2c(cc1OC)[C@H]1[C@@H](C)c3ccc(OC)c(OC)c3CN1CC2` [Corydaline, corydaline], for which, in data set [1] (beagle, plasma, iv), the AUC(0-inf) was 7.18 ng·h/mL, the exposure AUC(0-t) is 6.5 ng·h/mL, the Cmax is 5.01 ng/mL and the Tmax was 0.0833 h. For the same compound, the half-life in data set [1] (beagle, plasma, iv) was 3.96 h. In data set [1] (beagle, plasma, po), this compound showed an AUC of 74.2 ng·h/mL, an AUC(0-inf) of 81.1 ng·h/mL, an AUC(0-t) of 74.2 ng·h/mL and a Cmax of 24.8 ng/mL. Further, in data set [1] (beagle, plasma, po), the Tmax is 1.5 h, the bioavailability was determined as 5.38% and the half-life is 8.74 h.

Take protopine: in data set [2], the “UIR parameter A1, Estimate” value is 0 ng/mL; the “UIR parameter Ka, Estimate” value was 1.36 h⁻¹; the “UIR parameter Tlag, Estimate” value was 0.44 h; the “UIR parameter alpha1, Estimate” value is 1.35 h⁻¹. Besides, the “Bioavailability (absolute oral)” value in data set [1] (in vivo) worked out at 1.35%. In data set [1] (in vivo, iv), the Cl/F was 0.03 L/h, the Cmax amounted to 12.44 ng/mL, the T1/2 turned out to be 4.5773 h and the Tmax came to 0.083 h. The compound further had a Vz/F in data set [1] (in vivo, iv) of 0.22 L. In addition, in data set [1] (in vivo, po), the Cl/F is recorded as 0.21 L/h, the Cmax is recorded as 1.63 ng/mL, the “Observed AUC” value was determined as 205.15 and the Observed Cmax amounted to 1.63 ng/mL. Moreover, in data set [1] (in vivo, po), the T1/2 was determined as 5.321 h, the Tmax was found to be 1.5 h and the Vz/F came to 1.64 L. For the same compound, for the setting “pH 1.2”, the “Solubility, 0.1 M HCl” value stood at 4700 ± 384 µg/mL. The “Solubility, Acetate Buffer” value (pH 4.5) amounted to 5403 ± 378 µg/mL. Also, where the note is “pH 6.8”, the “Solubility, Phosphate Buffer” value is 535 ± 17.2 µg/mL. Besides, the “In Vitro Caco-2 Cell Permeability (Peff)” value in data set [3] stood at 7.49 ± 0.0803 ×10⁻⁶ cm/s. For the same compound, in data set [4], the “Observed AUC” value worked out at 205.15, the “Observed Cmax” value stood at 1.15 ng/mL, the “Predicted AUC” value is listed as 218.10 and the “Predicted Cmax” value is recorded as 1.26 ng/mL.

For `COc1c2ccoc2c(OC[C@@H](O)C(C)(C)O)c2oc(=O)ccc12` [Byakangelicin, byakangelicin], in data set [1] (beagle, plasma, iv), the AUC(0-inf) is 11.7 ng·h/mL, the AUC(0-t) was 11.1 ng·h/mL, the peak level (Cmax) was 11.8 ng/mL and the Tmax is 0.0833 h. Further, in data set [1] (beagle, plasma, iv), the half-life was found to be 0.775 h. For the same compound, in data set [1] (beagle, plasma, po), the AUC was 59.7 ng·h/mL, the AUC(0-inf) was 65.3 ng·h/mL, the AUC(0-t) was 59.7 ng·h/mL and the peak level (Cmax) was 27.3 ng/mL. Moreover, in data set [1] (beagle, plasma, po), the Tmax was 1 h, the bioavailability was 3.81% and the half-life worked out at 3.29 h.

`COc1cc2c(cc1OC)[C@@H]1Cc3ccc(OC)c(OC)c3CN1CC2` [Tetrahydropalmatine, tetrahydropalmatine]: in data set [2] (beagle), the “UIR parameter A1, Estimate” value was 0.04 ng/mL; the “UIR parameter Ka, Estimate” value was 1.28 h⁻¹; the “UIR parameter Tlag, Estimate” value is recorded as 0.40 h; the “UIR parameter alpha1, Estimate” value is 1.30 h⁻¹. Besides, in data set [1] (beagle, plasma, iv), the AUC(0-inf) is 10.9 ng·h/mL, the AUC(0-t) was 9.87 ng·h/mL, the highest level (Cmax) was 11.4 ng/mL and the Tmax is 0.0833 h. For the same compound, in data set [1] (beagle, plasma, iv), the half-life stood at 6.66 h. Also, in data set [1] (beagle, plasma, po), the AUC is 136 ng·h/mL, the AUC(0-inf) is 137 ng·h/mL, the AUC(0-t) was 136 ng·h/mL and the Cmax is 45.7 ng/mL. In data set [1] (beagle, plasma, po), the Tmax was 1.5 h, the bioavailability amounted to 10.8% and the half-life was 3.9 h.
